The target of series [1] is Histone deacetylase 3 (Homo sapiens, UniProt O15379). The experiment in a line: Inhibition of HDAC3 (unknown origin).
The target in series [2] is T1, Envelope glycoprotein gp160 (Human immunodeficiency virus 1, UniProt Q6QLK5). The experiment in a line: Inhibition of HIV1 JRFL gp120 assessed as reduction in CD4/gp 120 complex formation incubated for 1 hr by ELISA. (In an ELISA, binding on a coated surface is turned into a signal by an enzyme label.)
Series [3] in a line: Inhibition of Acinetobacter baumannii N-terminal ADC-7 cephalosporinase expressed in Escherichia coli BL21(DE3) incubated for 5 mins by UV-vis spectrophotometric method.
Series [4] addresses Histone deacetylase. Put plainly: Inhibition of HDAC (unknown origin) using Fluoro-Substrate Peptide as substrate by fluorescence assay. The series is classed as protein assay, Homo sapiens.
For series [5], the target named is T1, Envelope glycoprotein gp160. The experiment in a line: Inhibition of HIV1 gp120 assessed as increase in anti-DNP binding to immobilized HIV-1 gp120 incubated for 1 hr by ELISA.
Series [6] deals with Human immunodeficiency virus 1. Put plainly: Antiviral activity against HIV1 infected in human MT2 cells incubated for 5 days. As to conditions: Human immunodeficiency virus 1, MT2, 120 h. It counts as functional, organism-based.
Series [7] in a line: Cytotoxicity against human MT2 cells incubated for 5 days. The series is classed as cell-based.
The nature of series [8]: Inhibition of HIV1 reverse transcriptase p66/p51 K103N/Y181C mutant infected in human MT2 cells assessed as reduction in viral infection incubated for 5 days.
Series [9] concerns the target Protease (Human immunodeficiency virus 1, UniProt Q9YQ12). The experiment in a line: Inhibition of HIV1 protease using RE(Edans)SGIFLETSK(Dabcyl)R as substrate by fluorescence method.
For series [10], the system named is Human immunodeficiency virus 1. The experiment in a line: Antiviral activity against HIV1 3B infected in human MT2 cells incubated for 5 days by MTT assay. The series is classed as functional, organism-based. As to conditions: Human immunodeficiency virus 1, 3B, MT2, 120 h. (Formazan colour is commonly taken as a measure of viable cells.)

A value given as a limit tells only on which side of the number the result lay.

T1 sequence (Q6QLK5 whole entry): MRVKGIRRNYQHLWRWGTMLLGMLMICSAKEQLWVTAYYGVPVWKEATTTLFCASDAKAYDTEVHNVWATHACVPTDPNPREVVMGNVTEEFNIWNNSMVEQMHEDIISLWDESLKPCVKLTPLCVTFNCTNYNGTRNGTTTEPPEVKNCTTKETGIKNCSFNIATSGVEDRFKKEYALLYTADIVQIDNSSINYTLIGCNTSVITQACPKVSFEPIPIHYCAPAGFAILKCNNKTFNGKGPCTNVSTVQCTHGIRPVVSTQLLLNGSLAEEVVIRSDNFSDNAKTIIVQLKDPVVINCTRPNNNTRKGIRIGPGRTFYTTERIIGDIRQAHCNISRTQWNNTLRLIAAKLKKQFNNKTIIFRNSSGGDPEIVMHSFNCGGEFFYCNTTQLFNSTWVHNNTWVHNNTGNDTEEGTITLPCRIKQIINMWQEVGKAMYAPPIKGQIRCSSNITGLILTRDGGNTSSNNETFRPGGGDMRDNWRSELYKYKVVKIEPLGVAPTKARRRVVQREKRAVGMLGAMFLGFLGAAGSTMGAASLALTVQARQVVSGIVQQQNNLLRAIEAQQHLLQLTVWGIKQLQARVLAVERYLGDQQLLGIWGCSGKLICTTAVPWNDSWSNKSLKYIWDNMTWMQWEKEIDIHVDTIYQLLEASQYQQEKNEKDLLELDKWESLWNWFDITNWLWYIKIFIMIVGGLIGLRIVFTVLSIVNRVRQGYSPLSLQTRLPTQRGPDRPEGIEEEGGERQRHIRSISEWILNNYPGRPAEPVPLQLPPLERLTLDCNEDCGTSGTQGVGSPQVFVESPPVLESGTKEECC
Protease, sequence (Q9YQ12 whole entry): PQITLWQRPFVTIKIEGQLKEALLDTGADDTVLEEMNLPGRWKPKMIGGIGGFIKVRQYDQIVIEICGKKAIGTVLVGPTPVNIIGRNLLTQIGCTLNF
Histone deacetylase 3, sequence (O15379 whole entry): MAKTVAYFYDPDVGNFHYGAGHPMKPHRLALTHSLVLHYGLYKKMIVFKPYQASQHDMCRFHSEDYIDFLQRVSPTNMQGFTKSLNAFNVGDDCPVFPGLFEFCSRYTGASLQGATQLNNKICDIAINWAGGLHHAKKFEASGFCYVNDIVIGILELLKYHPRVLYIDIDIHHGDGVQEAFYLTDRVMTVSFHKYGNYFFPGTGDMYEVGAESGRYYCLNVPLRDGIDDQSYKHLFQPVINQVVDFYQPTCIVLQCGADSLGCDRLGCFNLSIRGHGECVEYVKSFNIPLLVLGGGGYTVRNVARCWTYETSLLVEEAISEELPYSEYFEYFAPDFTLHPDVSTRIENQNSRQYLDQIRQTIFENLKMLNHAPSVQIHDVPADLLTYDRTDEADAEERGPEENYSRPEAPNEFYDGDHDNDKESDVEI

In series [1], `O=C(NO)c1cccc(-c2cn(CSc3ccccc3)nn2)c1` displayed an IC50 of 68000 nM.

Regarding `COc1ccnc2[nH]cc(C(=O)C(=O)N3CCN(C(=O)c4ccccc4)C[C@H]3C)c12`, in series [2], the IC50 is 8700 nM.

As to `O=C(Cc1cccs1)N[C@@H](Cn1cc(C(=O)O)nn1)B(O)O`, the affinity in series [3] corresponds to a Ki of 44 nM.

`Nc1ccccc1NC(=O)c1ccc(-c2cn(CCc3ccsc3)nn2)cc1`: in series [4], the IC50 is greater than 100000 nM.

In [4], `Nc1ccccc1NC(=O)c1ccc(-c2cn(CCc3cccc([N+](=O)[O-])c3)nn2)s1` returned a half-maximal inhibitory concentration (IC50) greater than 100000 nM.

For the molecule `C[C@@H]1CN(C(=O)c2ccccc2)CCN1C(=O)C(=O)c1c[nH]c2nccc(OCCOCCOCCOCCOCCOCCn3cc(COCCOCCOCCOCCNc4ccc([N+](=O)[O-])cc4[N+](=O)[O-])nn3)c12`, in [2], the IC50 was 19900 nM. The EC50 in series [5] is 37900 nM.

With `Cc1c(Oc2ccccc2OCCn2ccc(=O)[nH]c2=O)cc(Cl)c2ccc(C#N)cc12`, the EC50 was determined as 6.2 nM in [6] and 280 nM in series [8]. The molecule further registered a CC50 at 120 h in series [7] greater than 100000 nM.

For `CC(C)CN(C[C@@H](O)[C@H](Cc1ccccc1)NC(=O)O[C@H]1CO[C@H]2OCC[C@H]21)S(=O)(=O)c1ccc(B(O)O)cc1`, the Ki in [9] turned out to be 0.0005 nM.

In turn, `Cc1c(Oc2ccccc2OCCn2ccc(=O)[nH]c2=O)cc(N(C)C(=O)CF)c2ccc(C#N)cc12` came in with an EC50 in [6] of 890 nM. This molecule also gave a CC50 at 120 h in series [7] greater than 100000 nM.

Turning to `C=CC(=O)Nc1cc(Oc2ccccc2OCCn2ccc(=O)[nH]c2=O)c(C)c2cc(C#N)ccc12`, it took 1600 nM to reach a half-maximal effect in series [6] (EC50). In addition, the CC50 at 120 h in [7] came out at 11000 nM.

With `COc1ccc(-c2ccc(CNC(=O)COCCOCCOCCOCCn3cc(COCCOCCOCCOCCNc4ccc([N+](=O)[O-])cc4[N+](=O)[O-])nn3)o2)c2[nH]cc(C(=O)C(=O)N3CCN(C(=O)c4ccccc4)CC3)c12`, the IC50 in series [10] came out at 13 nM; in series [2], 330 nM. Also, the EC50 in [5] stood at 1120 nM.

The molecule `Cc1c(Oc2ccccc2OCCn2ccc(=O)[nH]c2=O)cc(N(C)C(=O)CCl)c2ccc(C#N)cc12` returned an EC50 in series [6] of 580 nM. Moreover, in [7], half-maximal cytotoxicity (CC50 at 120 h) was put at 32000 nM.

`COc1ccc(-c2ccco2)c2[nH]cc(C(=O)C(=O)N3CCN(C(=O)c4ccccc4)CC3)c12`: the results for the IC50 in series [10] and in series [2] were 0.064 nM and 130 nM, respectively.

In [6], `C=CC(=O)N(C)c1cc(Oc2ccccc2OCCn2ccc(=O)[nH]c2=O)c(C)c2cc(C#N)ccc12` displayed an EC50 of 560 nM. Also, the CC50 at 120 h in series [7] was 32000 nM.

The term IC50 denotes the concentration that gives 50% inhibition. What is called Ki is a dissociation constant, usually derived from enzyme kinetics or from competition with a known ligand. A higher Ki goes with a looser hold on the target. The term EC50 denotes the concentration giving half of the maximal effect. The term CC50 denotes the concentration at which the toxic effect on the cells reaches its halfway point.

The values are drawn from ChEMBL document CHEMBL4321787, “Overview of Recent Strategic Advances in Medicinal Chemistry” (J Med Chem, 2019).
